Measurements taken from the supplement of paper PMC11579375.

Experiments:
Assay in all cases: area under the viability dose-response curve (AUC) (AUC (arbitrary units, max 500 = no viability loss)); higher = less sensitive (higher viability)
Settings in all cases: exposure time: 120 h; concentration range: 0.1 nM - 10 µM, 6 doses
13E = tested on: 13E (embryonal-type hepatoblastoma organoid)
Method: (§1)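 Patient-derived hepatoblastoma tumor organoids (about 50 organoids per well, 384-well plates, medium with 5% BME) were treated with the PMC pediatric cancer drug library. Each drug was tested in duplicate at 6 concentrations (0.1 nM to 10 µM, 10-fold steps).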

27F1 = tested on: 27F1 (fetal-I hepatoblastoma organoid with intermediate liver markers)
Method: as §1

8F1 = tested on: 8F1 (fetal-I hepatoblastoma organoid with intermediate liver markers)
Method: as §1

22E = tested on: 22E (embryonal-type hepatoblastoma organoid)
Method: as §1

13F2 = tested on: 13F2 (fetal-II hepatoblastoma organoid with high liver markers)
Method: as §1

17F1 = tested on: 17F1 (fetal-I hepatoblastoma organoid with intermediate liver markers)
Method: as §1

17E = tested on: 17E (embryonal-type hepatoblastoma organoid)
Method: as §1

3E = tested on: 3E (embryonal-type hepatoblastoma organoid)
Method: as §1

135F2 = tested on: 135F2 (fetal-II hepatoblastoma organoid with high liver markers)
Method: as §1

96F1 = tested on: 96F1 (fetal-I hepatoblastoma organoid with intermediate liver markers)
Method: as §1

10F2 = tested on: 10F2 (fetal-II hepatoblastoma organoid with high liver markers)
Method: as §1

Compound | area under the viability dose-response curve (13E) | area under the viability dose-response curve (27F1) | area under the viability dose-response curve (8F1) | area under the viability dose-response curve (22E) | area under the viability dose-response curve (13F2) | area under the viability dose-response curve (17F1) | area under the viability dose-response curve (17E) | area under the viability dose-response curve (3E) | area under the viability dose-response curve (135F2) | area under the viability dose-response curve (96F1) | area under the viability dose-response curve (10F2)
COc1cc(N2CCC(N3CCN(C)CC3)CC2)ccc1Nc1ncc(Cl)c(Nc2ccccc2P(C)(C)=O)n1 [Brigatinib] | 402 | 420 | 454 | 381 | 388 | 426 | 398 | 349 | 392 | 427 | 399
CNc1nc(-c2nc3ccc(N4CCN(C)CC4)cc3n2Cc2ccccc2)cn2c(C)nnc12 | 411 | 479 | > 500 | 415 | 260 | 460 | 433 | 321 | 309 | 492 | 328
C[C@]12C=CC(=O)C=C1CC[C@@H]1[C@@H]2[C@@H](O)C[C@@]2(C)[C@H]1CC[C@]2(O)C(=O)CO [Prednisolone] | 494 | 489 | 472 | 487 | > 500 | 493 | 467 | 472 | 475 | 479 | 475
O=C(/C=C/c1cccc(S(=O)(=O)Nc2ccccc2)c1)NO [Belinostat] | 401 | 418 | 434 | 425 | 359 | 437 | 367 | 355 | 386 | 409 | 365
C[C@@H]1CN(C(=O)c2ccc(NC(=O)c3cc(O[C@H](C)c4c(Cl)ccc(F)c4Cl)c(N)nn3)cc2)C[C@H](C)N1 [Ensartinib] | 422 | 468 | 444 | 393 | 410 | 483 | 411 | 403 | 449 | 456 | 449
CNC(=O)CN1CCC(Oc2cc3c(Nc4cccc(Cl)c4F)ncnc3cc2OC)CC1 [Sapitinib] | > 500 | 338 | 439 | 492 | 312 | 464 | 491 | 431 | 458 | 404 | 235
CC(C)(C)c1cc(NC(=O)Nc2ccc(-c3cn4c(n3)sc3cc(OCCN5CCOCC5)ccc34)cc2)no1 [Quizartinib] | > 500 | > 500 | 494 | 484 | 485 | 471 | 432 | > 500 | 489 | 489 | 474
O=C(c1cc(Cc2n[nH]c(=O)c3ccccc23)ccc1F)N1CCN(C(=O)C2CC2)CC1 [Olaparib] | 496 | 476 | > 500 | 458 | 491 | > 500 | 494 | 477 | 492 | 490 | 470
CNC(=O)c1cc(Oc2ccc(NC(=O)Nc3ccc(Cl)c(C(F)(F)F)c3)cc2)ccn1 [Sorafenib] | 454 | 458 | 453 | 452 | 440 | 448 | 437 | 448 | 431 | 459 | 443
C[C@H](NC(=O)CCC(F)(F)F)C(=O)N[C@@H]1C(=O)N(CCO)c2ncccc2-c2ccccc21 [Crenigacestat] | 482 | 484 | 498 | 474 | 418 | > 500 | 482 | 458 | 479 | 480 | 389
Cc1cc(-c2ncc(CC(=O)Nc3ccc(-c4cnccn4)cn3)cc2C)ccn1 [LGK974] | 497 | 492 | 489 | 494 | 477 | 497 | 475 | > 500 | 499 | 491 | 474
C[C@@H]1COC(Nc2ccc3ncnc(Nc4ccc(OCc5nccs5)c(Cl)c4)c3c2)=N1 [Varlitinib] | 476 | 433 | 476 | 481 | 372 | 447 | 480 | 485 | 465 | 430 | 382
Nc1ncccc1-c1nc2ccc(-c3ccccc3)nc2n1-c1ccc(C2(N)CCC2)cc1 [Miransertib] | 421 | 447 | 428 | 387 | 422 | 494 | 365 | 338 | 429 | 433 | 446
Cc1sc2c(c1C)C(c1ccc(Cl)cc1)=N[C@@H](CC(N)=O)c1nnc(C)n1-2 [CPI-203] | 410 | 468 | 447 | 413 | 336 | 467 | 373 | 342 | 334 | 473 | 335
N#CC[C@H](C1CCCC1)n1cc(-c2ncnc3[nH]ccc23)cn1 [Ruxolitinib] | > 500 | > 500 | > 500 | 440 | 487 | 478 | 487 | 462 | 491 | 490 | 492
C=CC(=O)Nc1cc(Nc2nccc(-c3cn(C)c4ccccc34)n2)c(OC)cc1N(C)CCN(C)C [Osimertinib] | 424 | 380 | 490 | 423 | 364 | 468 | 448 | 378 | 442 | 449 | 335
C[C@@H]1CN(CC(=O)Nc2ccc3c(c2)Cc2cccc(-c4cc(=O)cc(N5CCOCC5)o4)c2S3)C[C@H](C)O1 | 493 | 456 | > 500 | 461 | 484 | > 500 | 457 | > 500 | 470 | 480 | 430

Compound | area under the viability dose-response curve (13E) | area under the viability dose-response curve (27F1) | area under the viability dose-response curve (8F1) | area under the viability dose-response curve (22E) | area under the viability dose-response curve (13F2) | area under the viability dose-response curve (17F1) | area under the viability dose-response curve (17E) | area under the viability dose-response curve (3E) | area under the viability dose-response curve (135F2) | area under the viability dose-response curve (96F1) | area under the viability dose-response curve (10F2)
Cc1cc(C)cc(C(=O)NOCCCCCC(=O)NO)c1 [LMK-235] | 404 | 411 | 428 | 413 | 379 | 418 | 365 | 407 | 378 | 426 | 395
CC(C)c1cc(-c2n[nH]c(=O)n2-c2ccc3c(ccn3C)c2)c(O)cc1O [Ganetespib] | 269 | 278 | 265 | 345 | 243 | 343 | 232 | 265 | 340 | 358 | 236
Cc1c(-c2c(-c3ccc(F)o3)sc3ncnc(O[C@H](Cc4ccccc4OCc4ccnn4CC(F)(F)F)C(=O)O)c23)ccc(OCCN2CCN(C)CC2)c1Cl | 367 | 428 | 485 | 388 | 239 | > 500 | 370 | 234 | 351 | > 500 | 185
CCc1cc2c(cc1N1CCC(N3CCOCC3)CC1)C(C)(C)c1[nH]c3cc(C#N)ccc3c1C2=O [Alectinib] | 498 | > 500 | 496 | 479 | 473 | 499 | > 500 | 452 | 499 | > 500 | > 500
CC[C@H](Nc1nc(NCc2cnc(C)cc2C)c2ncn(C(C)C)c2n1)[C@@H](C)O [CYC065] | 400 | 347 | 377 | 419 | 328 | 366 | 381 | 382 | 387 | 333 | 325
CO[C@H]1/C=C/C[C@H](C)[C@@H](C)S(=O)(=O)NC(=O)c2ccc3c(c2)N(C[C@@H]2CC[C@H]21)C[C@@]1(CCCc2cc(Cl)ccc21)CO3 [AMG-176] | 421 | 450 | 475 | 454 | 344 | 481 | 434 | 369 | 431 | 488 | 274
O=C(Nc1cnn2ccc(N3CCC[C@@H]3c3cc(F)ccc3F)nc12)N1CC[C@H](O)C1 [Larotrectinib] | 487 | > 500 | 473 | > 500 | > 500 | 467 | 453 | 450 | 495 | 481 | > 500
CS(=O)(=O)CCNCc1ccc(-c2ccc3ncnc(Nc4ccc(OCc5cccc(F)c5)c(Cl)c4)c3c2)o1 [Lapatinib] | 483 | 416 | 495 | 463 | 388 | 459 | 482 | 464 | 474 | 445 | 336
CNC(=O)c1cccc(-c2ccc3c(N4CCOC[C@@H]4C)nc(N4CCOC[C@@H]4C)nc3n2)c1 [Vistusertib] | 409 | 407 | 470 | 426 | 342 | 498 | 392 | 376 | 407 | 460 | 324
CN(C)C/C=C/C(=O)Nc1ccc(C(=O)Nc2cccc(Nc3ncc(Cl)c(-c4c[nH]c5ccccc45)n3)c2)cc1 [THZ1] | 291 | 435 | 410 | 241 | 276 | 371 | 281 | 223 | 314 | 343 | 256
C[C@H](NC(=O)Cc1cc(F)cc(F)c1)C(=O)N[C@@H]1C(=O)N(C)c2ccccc2-c2ccccc21 | 472 | 441 | 456 | 493 | 388 | 478 | 430 | 406 | 472 | 497 | 392
C[C@@H](Oc1cc(-c2cnn(C3CCNCC3)c2)cnc1N)c1c(Cl)ccc(F)c1Cl [Crizotinib] | 415 | 441 | 477 | 420 | 398 | 431 | 405 | 379 | 422 | 462 | 369
O=c1cc(-c2cccc3c2Sc2ccccc2S3)oc(N2CCOCC2)c1 | 498 | > 500 | > 500 | 497 | 500 | > 500 | 498 | 490 | > 500 | > 500 | 455
COc1cc(CCc2cc(NC(=O)c3ccc(N4CC(C)NC(C)C4)cc3)n[nH]2)cc(OC)c1 (centres undefined) [AZD4547] | 375 | > 500 | > 500 | 370 | 376 | 480 | 338 | 308 | 471 | 475 | 476
CN1CC[C@@H](NC(=O)Nc2ccc(C#N)cc2)C[C@@H]1c1nc2ccccc2[nH]1 [Glasdegib] | > 500 | > 500 | > 500 | > 500 | > 500 | 497 | > 500 | > 500 | > 500 | > 500 | 448
Cc1c2c(nn1C)CSCc1cc(n(C)n1)CSc1cc(c3ccccc3c1)OCCCc1c(C(=O)O)n(C)c3c-2c(Cl)ccc13 [AZD5991] | 403 | 473 | 484 | 400 | 277 | 482 | 370 | 310 | 379 | > 500 | 190
CN(C)C/C=C/C(=O)Nc1cc2c(Nc3ccc(F)c(Cl)c3)ncnc2cc1O[C@H]1CCOC1 [Afatinib] | 472 | 342 | 493 | 489 | 271 | 408 | 491 | 456 | 442 | 352 | 253
